Results taken from US11235020B2, “Methods and compositions for inhibiting glyoxalase 1 (GLO1)” (priority 2013, dated 2022).
Where two headings read alike, the source gives them in different places.

Legend:
[1] = HPLC measurement of MG concentration in whole brain after i.p. MG; assay type: in vivo, mouse; conditions: for concentration at 10 min: intraperitoneal, read-out: Estimated MG concentration; for concentration at 10 min / MG concentration (nmol/g tissue): brain; for MG concentration (nmol/g tissue): 10 min post-injection
Protocol: MG concentration was measured by HPLC as previously described with modifications (Dhar 2009). Tissue was homogenized in 50 mM sodium phosphate buffer (pH 6.6) and 0.8N perchloric acid. It was then incubated on ice for 10 minutes and centrifuged. The supernatant was filtered, and MG was derivatized with 10 mM o-phenylenediamine to form 2-methylquinoxaline (2-MQ). 5-methylquinoxaline (5-MQ, 15 μM) was spiked into each sample as an internal standard. 2-MQ was quantified using an HP 1100 HPLC system (Agilent) with a Nova-Pak C18 column (Waters Corporation). Column effluent was monitored at 315 nm. 2-MQ concentration was determined by comparison to 2-MQ standards of known mass. Quantification of 2-MQ was corrected for losses by comparison with 5-MQ. MG concentration was calculated as 2-MQ/tissue weight. Treatment: Unless otherwise noted, crude MG was used for all behavioral experiments. MG was obtained from Sigma-Aldrich, filter-sterilized (0.22 μm filter, Millipore), diluted in vehicle (0.9% NaCl), and adjusted to pH 7.4. Mice were injected i.p. with 10 ml/kg MG or vehicle. HPLC: Ten minutes post-injection, mice were sacrificed, and brains were rapidly dissected and flash-frozen on dry ice. MG concentration was measured as described above.

mice = test: Hypothermia (rectal temperature); assay type: in vivo, mouse; conditions: 300 mg/kg i.p., B6 mice
Protocol: Hypothermia: Thirty minutes post-injection, rectal temperature was measured with a digital thermometer.

CD-1 mice = test: Accelerating rotarod; assay type: in vivo, mouse; conditions: MG 300 mg/kg
Protocol: On day 1, mice were trained on the rotarod for five consecutive trials. […] The latency to fall and the rotarod speed at the time of the fall were recorded.

[2] = test system: GABAA receptors in hippocampal neurons; test: Whole-cell patch clamp in hippocampal neurons (HN); assay type: cell-based, rat
Protocol: Reagents: All reagents were obtained from Sigma-Aldrich.
Neurons were maintained in neurobasal medium with B27 supplement and glutamax in a humidified atmosphere with 5% CO2 at 37° C.
Filter and sampling frequencies were 5 and 25 kHz, respectively, for voltage-clamp experiments and 1 and 10 kHz, respectively, for current-clamp recording. Experiments were performed at 32° C. using a feedback-controlled heated perfusion system (Warner Instruments). Vm, ligand-gated currents, and potassium channel currents were studied in a bath solution containing 1 mM CaCl2, 1 mM MgCl2, 4 mM KCl, 140 mM NaCl, 5 mM glucose, and 10 mM HEPES (pH 7.4). […] Electrodes were coated with Sigmacote (Sigma) prior to use.
Ligand-gated currents: Ligand-gated currents were studied in voltage-clamp mode by application of reagents to cells held at −50 mV.

[3] = test system: GABAA receptors in macropatches excised from CGN; test: Macropatch recording from CGN; assay type: cell-based, rat
Protocol: Macropatch recording: Macropatch recording was performed with 1.5-2 MΩ electrodes filled with bath solution. The inside of excised patches was perfused with electrode solution containing the indicated reagents. SR was added to the electrode where indicated.

potassium currents = test: Potassium currents in CGN; assay type: cell-based, rat; conditions: 10 μM MG
Source text: Potassium currents: Voltage-gated potassium channel currents were evoked using a previously reported protocol with modifications (Plant 2006). The whole voltage-gated potassium current, IK+, and the delayed rectifier current, IDR were isolated with two voltage protocols. First, IK+ was evoked by 250 ms test pulses to between −80 and 90 mV from −80 mV following a 250 ms pre-pulse to −140 mV. Then, the protocol was repeated using a −50 mV pre-pulse to inactivate IK+ and isolate IDR. The inactivating component of the current, IKA, was isolated by subtracting IDR from IK+ recorded in the same cells. The standing outward potassium leak current, IKso, and the inwardly rectifying potassium current, IKIR, were studied as previously reported with modifications (Plant 2002). Cells were held at −20 mV, and the membrane potential was ramped to −120 mV over a period of 100 ms before returning to −20 mV. Ramp hyperpolarizations were repeated every 20 seconds.

glycine receptors = test: Glycinergic currents in CGN; assay type: cell-based, rat; conditions: 10 μM MG
Source text: Ligand-gated currents: Ligand-gated currents were studied in voltage-clamp mode by application of reagents to cells held at −50 mV. GABAergic and glycinergic currents were activated by application of GABA and glycine and antagonized by application of SR and strychnine, respectively (Kaneda 1995). Glutamatergic currents were activated by 1-glutamate and antagonized by CNQX and AP-5 (Wyllie 1994).

[4] = test system: picrotoxin-induced seizures; test: Picrotoxin-induced seizures, behavioral scoring; assay type: in vivo, mouse; conditions: MG 50 and 200 mg/kg pre-treatment, picrotoxin 5 mg/kg
Protocol: Drug administration: All experiments with MG utilized crude MG obtained from Sigma-Aldrich. For pre-treatment, MG (50 or 200 mg/kg) or vehicle (0.9% saline) was administered by i.p. injection 10 minutes before the seizure-inducing agent. For treatment after seizure onset, MG (200 mg/kg) or vehicle (0.9% saline) was administered by i.p. injection ten minutes after seizure onset. For GLO1 inhibition, BrBzGCp2 (50 mg/kg) or vehicle (8% DMSO and 18% Tween-80) was administered by i.p. injection two hours before seizure induction.
Seizure induction: For picrotoxin-induced seizures, 5 mg/kg of picrotoxin in 0.9% saline was administered by i.p. injection. Seizures were scored for one hour after picrotoxin administration. For pilocarpine-induced seizures, mice were pre-treated with atropine (5 mg/kg in 0.9% saline) by i.p. injection in order to reduce the peripheral effects of pilocarpine. Thirty minutes after atropine administration, pilocarpine was administered by i.p. injection. B6 mice were treated with 250 mg/kg pilocarpine in 0.9% saline, and FVB mice (WT and Tg) were treated with 300 mg/kg pilocarpine in 0.9% saline. Seizures were scored for 90 minutes after pilocarpine administration.
Seizure scoring: Picrotoxin-induced seizures were scored as the presence of generalized convulsions as well as the latency to and duration of generalized convulsions.

[5] = test system: depression-like behavior in mice; conditions: intracerebroventricular MG for six days (Hambsch 2010); cited from earlier work
anxiety-like behavior = conditions: intracerebroventricular MG for six days (Hambsch 2010); cited from earlier work

CC(=O)C=O [MG, methylglyoxal]
concentration at 10 min ([1]; B6, mouse, MG 50 mg/kg i.p. (anxiolytic dose)): 5.94 µM
concentration at 10 min ([1]; B6, mouse, MG 100 mg/kg i.p.): 6.54 µM
concentration at 10 min ([1]; B6, mouse, MG 300 mg/kg i.p.): 8.26 µM
expected increase of the concentration of MG in the brain ([1]; MG 50 mg/kg): approximately 16%
MG concentration (nmol/g tissue) ([1]; MG 50 mg/kg i.p.): 5.66 ± 0.36 nmol/g tissue
MG concentration (nmol/g tissue) ([1]; MG 100 mg/kg i.p.): 6.23 ± 0.26 nmol/g tissue
expected increase of the concentration of MG in the brain ([1]; MG 200 mg/kg): ~43%
MG concentration (nmol/g tissue) ([1]; MG 300 mg/kg i.p.): 7.87 ± 0.56 nmol/g tissue
concentration at 10 min ([1]; mouse, MG 50 mg/kg i.p. (anxiolytic dose)): ~6 µM
hypothermia (mice): hypothermia
speed at fall from accelerating rotarod (ataxia) (CD-1 mice): fell from an accelerating rotarod at slower speeds than vehicle-treated mice
peak response versus GABA in hippocampal neurons [2]: approximately one-third of those evoked by GABA
latency of inward current after application to the intracellular face ([3]; 10 μM MG): approximately 40 seconds
current on application to the intracellular face of macropatches ([3]; 10 μM, SR 10 μM at the extracellular face (pipette)): elicited an inward current
effect on potassium currents (potassium currents): did not affect
activation of glycine receptors (glycine receptors): did not activate
duration of generalized convulsions [4]: reduced seizure duration
percentage of mice undergoing generalized convulsions [4]: reduced the percentage of mice undergoing generalized convulsions
latency to first generalized convulsion (seizure onset) ([4]; dose-dependent): delayed seizure onset
immobility in the TST [5]: reduced immobility in the TST
anxiety-like behavior in the EPM (anxiety-like behavior): reduced anxiety-like behavior in the EPM
